Data on one compound can be found in patent US20080045519A1, “Method to Fight Against Insects Including the Use of Hydrocarbon Compounds” (priority 2004, published 2008).

The test system of this experiment is worker termites of Reticulitermes santonensis type. The experiment is described as follows: Insecticidal activity of fipronil plus hydrocarbon compound mixture, termite mortality after 3 days (Example 4). It is filed as in vivo. To be noted: matrix sprayed with hydrocarbon compound mixture (Mixture B), 100 termites. How it is done:
The experiment is conducted in a LAB test box (6 cm×9 cm) containing on the bottom 2 mm of wet Fontainebleau sand and is repeated five times. In the box, a matrix is placed, consisting of a foam cube in which holes are made with a diameter of 5 mm, over which a small piece of poplar wood is placed (1 cm×2 cm×2 cm). The foam is impregnated with cold fipronil. The matrix is sprayed with a hydrocarbon compound mixture including 11.4% of 5-methylpentacosane; 36.3% of 11-methylpentacosane; 19.6% of (Z)-9-pentacosene; 27.7% of n-pentacosane, and 5% of n-hexacosane. Only 4 faces are sprayed. The top and the bottom of the matrix are not treated.
In the box, an untreated piece of poplar wood is also placed in order to recreate a natural situation as exactly as possible.
100 worker termites of Reticulitermes santonensis type are placed in the box and their mortality after 3 days is evaluated. Various concentrations of cold fipronil are tested: 0.5 ppm, 1 ppm, 2 ppm, 5 ppm, and 7 ppm.

Values joined by “and” are separate entries in the source; they are usually repeats but may differ in a detail not shown here. Equal entries are not always repeated.

As for `N#Cc1nn(-c2c(Cl)cc(C(F)(F)F)cc2Cl)c(N)c1[S+]([O-])C(F)(F)F` (stereo not drawn) [Fipronil, fipronil], the “Number of termites dead after 3 days” value by setting is: (fipronil at 0.5 ppm, average of 5 trials) 0; (fipronil at 0.5 ppm, single trials) 0; (fipronil at 1 ppm, average of 5 trials) 0; (fipronil at 1 ppm, single trials) 0; (fipronil at 2 ppm, average of 5 trials) 20; (fipronil at 5 ppm, average of 5 trials) 50.4. Further, the “Number of termites dead after 3 days” value by setting is: (fipronil at 5 ppm, single trials) 42 and 45 and 59 and 56 and 50; (fipronil at 7 ppm, average of 5 trials) 50.8; (fipronil at 7 ppm, single trials) 60 and 42 and 55 and 34 and 63.
